Experimental data reported in patent US12065443B2, “Compounds and pharmaceutical compositions thereof for the treatment of diseases” (priority 2017, dated 2024).

Columns and labels:
SIK1 = molecular target: T1, SIK1 (Homo sapiens, UniProt P57059); experiment: biochemical; conditions: 33P radioactive SIK kinase assay, AMARA peptide, 10 μM ATP; read-out: SIK1 IC50
T1 construct: purchased Carna Biosciences 02-131
How it was run: (§1)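 AMARA peptide phosphorylation by SIK1–3 is quantified through ^33P uptake from a labeled/unlabeled ATP blend. Staurosporine at 10 μM final defines full inhibition, 1% DMSO the uninhibited signal. Quench uses phosphoric acid; counting follows filter capture.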

SIK2 = molecular target: T2, SIK2 (Homo sapiens, UniProt Q9H0K1); experiment: biochemical; conditions: 33P radioactive SIK kinase assay, AMARA peptide, 10 μM ATP
T2 construct: purchased ThermoFisher Scientific PV4792
T2 sequence (Q9H0K1 whole entry): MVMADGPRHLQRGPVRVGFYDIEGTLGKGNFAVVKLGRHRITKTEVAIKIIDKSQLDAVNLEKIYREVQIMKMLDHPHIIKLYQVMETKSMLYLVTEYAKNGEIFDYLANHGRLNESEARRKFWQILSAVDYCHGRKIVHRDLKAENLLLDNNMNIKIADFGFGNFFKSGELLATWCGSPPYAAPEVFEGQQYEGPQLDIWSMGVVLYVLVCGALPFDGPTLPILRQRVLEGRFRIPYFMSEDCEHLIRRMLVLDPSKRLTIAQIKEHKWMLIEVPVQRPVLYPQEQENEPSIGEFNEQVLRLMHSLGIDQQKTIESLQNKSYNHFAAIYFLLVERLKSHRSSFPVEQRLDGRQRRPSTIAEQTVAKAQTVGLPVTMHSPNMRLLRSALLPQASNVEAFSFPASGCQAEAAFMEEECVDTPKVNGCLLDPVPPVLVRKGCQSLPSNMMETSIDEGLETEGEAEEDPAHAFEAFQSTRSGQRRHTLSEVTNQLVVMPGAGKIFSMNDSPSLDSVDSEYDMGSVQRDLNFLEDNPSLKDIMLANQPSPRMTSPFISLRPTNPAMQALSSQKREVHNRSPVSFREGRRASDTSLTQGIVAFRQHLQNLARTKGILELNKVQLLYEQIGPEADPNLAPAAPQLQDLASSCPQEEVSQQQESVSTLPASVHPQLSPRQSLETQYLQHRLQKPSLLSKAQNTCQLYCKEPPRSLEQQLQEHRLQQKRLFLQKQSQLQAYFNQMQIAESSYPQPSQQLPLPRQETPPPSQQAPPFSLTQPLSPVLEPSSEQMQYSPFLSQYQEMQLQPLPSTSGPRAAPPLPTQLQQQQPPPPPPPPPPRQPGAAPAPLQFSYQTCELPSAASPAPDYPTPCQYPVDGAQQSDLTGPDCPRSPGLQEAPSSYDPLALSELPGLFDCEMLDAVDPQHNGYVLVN
How it was run: as §1

SIK3 = molecular target: T3, SIK3 (Homo sapiens, UniProt Q9Y2K2); experiment: biochemical
T3 construct: purchased SignalChem S12-11G-100
T3 sequence (Q9Y2K2 whole entry): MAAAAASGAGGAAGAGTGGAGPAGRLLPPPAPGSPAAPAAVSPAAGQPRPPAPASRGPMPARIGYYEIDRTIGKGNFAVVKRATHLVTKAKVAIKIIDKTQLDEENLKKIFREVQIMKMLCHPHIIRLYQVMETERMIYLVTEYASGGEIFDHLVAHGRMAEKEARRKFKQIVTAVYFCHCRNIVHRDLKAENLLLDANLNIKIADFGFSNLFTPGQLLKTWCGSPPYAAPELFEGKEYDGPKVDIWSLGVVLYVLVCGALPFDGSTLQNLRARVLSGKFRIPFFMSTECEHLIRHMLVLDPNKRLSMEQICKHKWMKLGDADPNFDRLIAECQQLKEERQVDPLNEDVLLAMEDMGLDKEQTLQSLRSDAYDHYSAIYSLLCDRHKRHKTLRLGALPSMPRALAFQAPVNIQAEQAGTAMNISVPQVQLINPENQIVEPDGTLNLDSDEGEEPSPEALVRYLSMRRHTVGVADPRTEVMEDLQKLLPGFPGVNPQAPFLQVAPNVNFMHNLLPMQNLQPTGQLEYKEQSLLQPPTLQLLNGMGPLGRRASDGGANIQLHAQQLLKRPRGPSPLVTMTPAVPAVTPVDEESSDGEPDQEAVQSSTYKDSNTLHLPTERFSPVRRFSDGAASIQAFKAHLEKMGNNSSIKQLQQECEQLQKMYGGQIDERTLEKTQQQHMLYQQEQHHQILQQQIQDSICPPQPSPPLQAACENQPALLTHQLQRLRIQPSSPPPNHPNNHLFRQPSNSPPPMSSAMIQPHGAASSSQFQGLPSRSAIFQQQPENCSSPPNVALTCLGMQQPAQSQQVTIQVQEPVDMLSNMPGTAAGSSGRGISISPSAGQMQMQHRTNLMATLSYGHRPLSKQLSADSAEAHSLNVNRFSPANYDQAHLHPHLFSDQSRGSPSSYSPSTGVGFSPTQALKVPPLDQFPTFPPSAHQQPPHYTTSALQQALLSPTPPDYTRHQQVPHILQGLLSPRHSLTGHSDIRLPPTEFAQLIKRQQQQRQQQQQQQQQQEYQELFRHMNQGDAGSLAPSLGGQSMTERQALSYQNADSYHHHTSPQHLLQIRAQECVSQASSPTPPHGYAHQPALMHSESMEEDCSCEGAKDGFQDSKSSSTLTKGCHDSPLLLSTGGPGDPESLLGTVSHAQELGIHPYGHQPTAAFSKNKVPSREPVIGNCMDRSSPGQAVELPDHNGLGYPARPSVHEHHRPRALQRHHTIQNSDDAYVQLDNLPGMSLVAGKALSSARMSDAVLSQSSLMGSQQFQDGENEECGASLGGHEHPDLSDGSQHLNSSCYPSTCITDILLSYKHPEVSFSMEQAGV
How it was run: as §1

[1] = test system: LPS-induced TNFα secretion in monocyte-derived macrophages (MdM); experiment: MdM assay: LPS-triggered TNFα (ELISA); assay type: cell-based, human; conditions: Homo sapiens, Macrophage, LPS-triggered TNFα inhibition
Procedure: This assay evaluates illustrative compounds of the invention for their inhibition of LPS-induced TNFα and LPS triggered IL-10 secretion in monocyte-derived macrophages.
PBMCs are isolated from human blood samples (buffycoats). The buffy coat is aseptically transferred into a 50 mL Falcon tube, and diluted 1/2 in PBS. Falcon tubes are filled with 20 mL Lymphoprep™, on top of which 25 mL of the buffy coat is carefully added, tubes are centrifuged for 35 min at 400 g in temperature controlled centrifuge, without brake, at 25° C. PBMCs are aspirated from the white interface layer between sample and Lymphoprep™. PBMCs are washed five times in PBS.
PBMCs are centrifuged at 300×g for 10 min and resuspended at a density of 1.0E07 cells/80 μL Miltenyi buffer (PBS, pH 7.4, 1% FBS, 2 mM EDTA).
Starting from this point of the protocol all steps are performed on ice. 20 μL of CD14+ micro-beads are added per 1.0E07 cells, the tube is mixed and incubated for 15 min in the fridge at 4° C. Cell suspension volume is adjusted to total volume of 100 mL using Miltenyi buffer, mixed gently and subsequently centrifuged for 10 min at 300× g. Supernantant is discarded and cell pellet is resuspended in 12 mL of Miltenyi buffer.
Four LS columns are placed in the MACS Separator (magnet) from Miltenyi Biotec, and are prewet by rinsing with 3 mL of MACS buffer per column. Three mL of cell suspension is added onto the column (max 1*10^8 of labelled cells/column), and columns are subsequently washed 3 times with 3 mL of Miltenyi buffer.
The columns are removed from the magnets, and 5 mL of Miltenyi buffer are added to the column to flush out the CD14+ fraction by pushing the plunger into the column. The flushed fractions are collected in a fresh 50 mL Falcon and volume is adjusted to 30 mL using Miltenyi buffer, cells are centrifuged for 10 min at 300× g. The obtained cell pellet is resuspended in 10 mL RPMI w/o FBS, and cell density is determined using a hematologic analyser (Sysmex XS-500i).
On day 10, MdMs are triggered and compound is added.
A compound dilution plate is made in 100% DMSO by 3-fold dilution of 10 mM stock solution. An intermediate dilution plate (10× final concentration) is made by diluting the compound dilution plate 50-fold in RPMI medium.
Medium is carefully removed from cell plates using multichannel pipette, and replaced by 80 μL fresh medium. 10 μL of the 10× final concentration compound is added to the cells and incubated for 1 hour at 37° C. before addition of trigger. No trigger conditions/trigger conditions are spiked with equal final DMSO concentrations of 0.2% DMSO. 10 μL of 10×LPS (final conc. 200 ng/mL) solution are added to all wells except for the ‘no trigger wells’ where 10 μL medium is added. Supernatant is collected after 2 h (IL-10 determination) and after 20 h (TNFα determination) of LPS triggering.
The plate is then washed once with PBST (PBS+0.05% Tween20) and once with PBS followed by the addition of 100 μL of blocking buffer (1% Bovine Serum Albumin (BSA)-5% Sucrose) and plates are sealed and incubated for at least 4 h at RT. After washing the plate once with PBST and once with PBS, 40 μL of standard or sample are added (TNFα standard curve is prepared using a 1/2 serial dilution starting from 16000 pg/mL; dilutions are made in dilution buffer (PBS+1% BSA)). Plates are washed twice with PBST, and once with PBS, after which 35 μL of the detection antibody is added (final concentration 0.25 μg/mL diluted in dilution buffer) and plates are incubated for at least 2 h at RT. Plates are washed twice with PBST, and once with PBS, where after 35 μL of Strep-HRP conjugate (0.5 μg/mL final concentration diluted in dilution buffer) is added. Plates are incubated in the dark, at RT for at least 45 min but no longer than 1 hour. Plates are washed twice with PBST, and once with PBS.

T1 sequence (P57059 whole entry): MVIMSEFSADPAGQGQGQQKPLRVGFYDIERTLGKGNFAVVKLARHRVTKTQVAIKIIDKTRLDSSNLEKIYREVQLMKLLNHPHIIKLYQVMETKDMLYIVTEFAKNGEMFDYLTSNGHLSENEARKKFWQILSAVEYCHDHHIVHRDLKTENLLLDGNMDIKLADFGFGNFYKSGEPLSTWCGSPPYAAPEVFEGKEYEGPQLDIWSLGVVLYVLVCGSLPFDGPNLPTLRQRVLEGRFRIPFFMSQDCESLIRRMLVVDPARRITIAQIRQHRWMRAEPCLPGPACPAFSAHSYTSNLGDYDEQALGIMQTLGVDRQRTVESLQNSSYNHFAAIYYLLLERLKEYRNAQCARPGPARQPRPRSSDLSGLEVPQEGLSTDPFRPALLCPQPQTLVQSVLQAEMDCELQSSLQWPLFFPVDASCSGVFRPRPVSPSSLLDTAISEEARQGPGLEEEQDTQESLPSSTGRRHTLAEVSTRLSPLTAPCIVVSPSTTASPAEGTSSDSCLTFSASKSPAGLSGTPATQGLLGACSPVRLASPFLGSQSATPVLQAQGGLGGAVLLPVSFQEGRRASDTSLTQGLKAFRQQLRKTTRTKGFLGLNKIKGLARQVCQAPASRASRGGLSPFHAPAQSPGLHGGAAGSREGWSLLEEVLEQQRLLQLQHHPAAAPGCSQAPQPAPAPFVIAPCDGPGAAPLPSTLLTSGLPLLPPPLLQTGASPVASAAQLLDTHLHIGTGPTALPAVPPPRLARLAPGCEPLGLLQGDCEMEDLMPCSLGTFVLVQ

SMILES | IC50 (SIK1) [nM] | IC50 (SIK2) [nM] | IC50 (SIK3) [nM] | EC50 [1] [nM]
CCn1cc(-c2ccc3c(c2)ncn3-c2cc(OC)c(C(=O)NC3CCC3)c(OC)c2)cn1 [compound 26, N-cyclobutyl-4-[5-(1-ethylpyrazol-4-yl)benzimidazol-1-yl]-2,6-dimethoxy-benzamide] | 10 to 100 | 10 to 100 | 10 to 100 | 100 to 1000
COc1cc(-c2cnc3cc(-c4cnn(CC(=O)OC(C)C)c4)ccn23)cc(OC)c1C(=O)NCC(F)(F)F [Cpd 231, isopropyl 2-[4-[3-[3,5-dimethoxy-4-(2,2,2-trifluoroethyl-carbamoyl)phenyl]imidazo[1,2-a]pyridin-7-yl]pyrazol-1-yl]acetate] | 0.01 to 10 | 0.01 to 10 | 0.01 to 10 | 0.1 to 100
COc1cc(-c2cnn3cc(-c4cnn(C)c4)cnc23)cc(OC)c1C(=O)NCC(F)(F)F [Cpd 52, 2,6-dimethoxy-4-[6-(1-methylpyrazol-4-yl)pyrazolo[1,5-a]pyrimidin-3-yl]-N-(2,2,2-trifluoroethyl)benzamide] | 10 to 100 | 0.01 to 10 | 10 to 100 | 100 to 1000
COc1cc(-n2cnc3cc(-c4cnn(C)c4)ccc32)cc(OC)c1C(=O)N[C@@H]1CC[C@H]1O [compound 159, N-[(1R,2R)-2-hydroxycyclobutyl]-2,6-dimethoxy-4-[5-(1-methylpyrazol-4-yl)benzimidazol-1-yl]benzamide] | 10 to 100 | 10 to 100 | 10 to 100 | 100 to 1000
COc1cc(-c2cnc3cc(-c4cnn(C)c4)ccn23)cc(OC)c1C(=O)NCC(C)C [compound 129, N-isobutyl-2,6-dimethoxy-4-[7-(1-methylpvrazol-4-yl)imidazo[1,2-a]pyridin-3-yl]benzamide] | 10 to 100 | 0.01 to 10 | 0.01 to 10 | 100 to 1000
COc1ncc(-c2ccn3c(-c4cc(OC)c(C(=O)NCC(F)(F)F)c(OC)c4)cnc3c2)cn1 [compound 241, 2,6-dimethoxy-4-[7-(2-methoxypyrimidin-5-yl)imidazo[1,2-a]pyridin-3-yl]-N-(2,2,2-trifluoroethyl)benzamide] | 100 to 500 | 100 to 500 | 10 to 100 | 100 to 1000
COc1cc(-c2cnc3cc(-c4cnn(CC(=O)OCCF)c4)ccn23)cc(OC)c1C(=O)NCC(F)(F)F [Cpd 235, 2-fluoroethyl 2-[4-[3-[3,5-dimethoxy-4-(2,2,2-trifluoroethyl-carbamoyl)phenyl]imidazo[1,2-a]pyridin-7-yl]pyrazol-1-yl]acetate] | 0.01 to 10 | 0.01 to 10 | 0.01 to 10 | 0.1 to 100
COc1cc(-n2cnc3cc(-c4cn(C)nn4)ccc32)cc(OC)c1C(=O)NCC(F)(F)F [compound 160, 2,6-dimethoxy-4-[5-(1-methyltriazol-4-yl)benzimidazol-1-yl]-N-(2,2,2-trifluoroethyl)benzamide] | 10 to 100 | 10 to 100 | 10 to 100 | 100 to 1000

Next, values leading:

IC50 (SIK1) [nM] | IC50 (SIK2) [nM] | IC50 (SIK3) [nM] | EC50 [1] [nM] | SMILES
10 to 100 | 10 to 100 | 10 to 100 | 1000 to 5000 | COc1cc(-n2cnc3cc(-c4cnc(C)[nH]4)ccc32)cc(OC)c1C(=O)NCC(F)(F)F [compound 152, 2,6-dimethoxy-4-[5-(2-methyl-1H-imidazol-5-yl)benzimidazol-1-yl]-N(2,2,2-trifluoroethyl)benzamide]
10 to 100 | 0.01 to 10 | 0.01 to 10 | 0.1 to 100 | CCOc1cncc(-c2ccn3c(-c4cc(OC)c(C(=O)NCC(F)(F)F)c(OC)c4)cnc3c2)c1 [compound 248, 4-[7-(5-ethoxy-3-pyridyl)imidazo[1,2-a]pyridin-3-yl]-2,6-dimethoxy-N-(2,2,2-trifluoroethyl)benzamide]
0.01 to 10 | 0.01 to 10 | 0.01 to 10 | 0.1 to 100 | COc1cc(-c2cnc3cc(-c4cnn(C(C)C(=O)OC(C)(C)C)c4)ccn23)cc(OC)c1C(=O)NCC(F)(F)F (stereo not drawn) [compound 243, tert-butyl 2-[4-[3-[3,5-dimethoxy-4-(2,2,2-trifluoroethyl-carbamoyl)phenyl]imidazol[1,2-a]pyridin-7-yl]pyrazol-1-yl]propanoate]
10 to 100 | 10 to 100 | 10 to 100 | 100 to 1000 | COc1cc(-n2cnc3cc(-c4cnn(C)c4)ccc32)cc(OC)c1C(=O)N[C@H](C)C(F)(F)F [compound 58, 2,6-dimethoxy-4-[5-(1-methylpyrazol-4-yl)benzimidazol-1-yl]-N-[(1R)-2,2,2-trifluoro-1-methyl-ethyl]benzamide]
100 to 500 | 10 to 100 | 10 to 100 | 1000 to 5000 | COc1cc(-n2cnc3cc(-n4cnc(C)c4)ccc32)cc(OC)c1C(=O)NCC(F)(F)F [Cpd 155, 2.6-dimethoxy-4-[5-(4-methylimidazol-1-yl)benzimidazol-1-yl]-N-(2,2,2-trifluoroethyl)benzamide]
10 to 100 | 0.01 to 10 | 10 to 100 | 100 to 1000 | COc1cc(-n2cnc3cc(-c4ccc(N5CCCC5)nc4)ccc32)cc(OC)c1C(=O)NCC(F)(F)F [compound 34, 2,6-dimethoxy-4-[5-(6-pyrrolidin-1-yl-3-pyridyl)benzimidazol-1-yl]-N-(2,2,2-trifluoroethyl)benzamide]
0.01 to 10 | 0.01 to 10 | 0.01 to 10 | 0.1 to 100 | COc1cc(-n2cnc3cc(-c4cnn(CC#N)c4)ccc32)cc(OC(F)F)c1C(=O)NC1CC1 [Cpd 55, 4-[5-[1-(cyanomethyl)pyrazol-4-yl]benzimidazol-1-yl]-N-cyclopropyl-2-(difluoromethoxy)-6-methoxy-benzamide]
0.01 to 10 | 0.01 to 10 | 0.01 to 10 | 100 to 1000 | CCNC(=O)c1c(OC)cc(-c2cnc3cc(-c4cnn(C5CCNCC5)c4)ccn23)cc1OC(F)F [compound 149, 2-(difluoromethoxy)-N-ethyl-6-methoxy-4-[7-[1-(4-piperidyl)pyrazol-4-yl]imidazo[1,2-a]pyridin-3-yl]benzamide]
100 to 500 | 100 to 500 | 10 to 100 | 1000 to 5000 | COc1cc(-c2cnc3cc(-c4cncnc4)ccn23)cc(OC)c1C(=O)NCC(F)(F)F [compound 242, 2,6-dimethoxy-4-(7-pyrimidin-5-ylimidazo[1,2-a]pyridin-3-yl)-N-(2,2,2-trifluoroethyl)benzamide]
0.01 to 10 | 0.01 to 10 | 0.01 to 10 | 100 to 1000 | COc1cc(-n2cnc3cc(-c4cnn(C5CCNCC5)c4)ccc32)cc(OC)c1C(=O)NCC(F)(F)F [compound 42, 2,6-dimethoxy-4-[5-[1-(4-piperidyl)pyrazol-4-yl]benzimidazol-1-yl]-N-(2,2,2-trifluoroethyl)benzamide]
